Results as given in patent US10022453B2 (BAYER PHARMA AKTIENGESELLSCHAFT, priority 2013, dated 2018).

target: T1, human kinesin spindle protein KSP/Eg5 (Homo sapiens, UniProt P52732); assay: Inhibition of the kinesin spindle protein KSP/Eg5 (ATPase, malachite green); type: biochemical; settings: 10 nM KSP motor domain, 500 μM ATP, 2 h RT
T1 construct: The motor domain of the human kinesin spindle protein KSP/Eg5; purchased tebu-bio/Cytoskeleton Inc 027EG01-XL
T1 sequence (P52732 18-359 limits assumed): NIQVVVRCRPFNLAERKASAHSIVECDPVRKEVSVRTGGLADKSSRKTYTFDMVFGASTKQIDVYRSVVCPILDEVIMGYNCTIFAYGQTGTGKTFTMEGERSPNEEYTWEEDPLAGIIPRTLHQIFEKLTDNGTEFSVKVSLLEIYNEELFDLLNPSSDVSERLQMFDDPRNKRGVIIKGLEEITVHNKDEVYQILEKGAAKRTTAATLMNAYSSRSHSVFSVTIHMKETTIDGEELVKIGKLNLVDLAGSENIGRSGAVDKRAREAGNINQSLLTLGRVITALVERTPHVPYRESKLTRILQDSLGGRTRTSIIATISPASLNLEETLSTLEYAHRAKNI
Protocol: C-1b Determination of the Inhibition of the Kinesin Spindle Protein KSP/Eg5 by Selected Examples
The motor domain of the human kinesin spindle protein KSP/Eg5 (from tebu-bio/Cytoskeleton Inc, No. 027EG01-XL) is incubated at a concentration of 10 nM with 50 μg/ml taxol- (from Sigma No. T7191-5MG) stabilized microtubuli (bovine or porcine, from tebu-bio/Cytoskeleton Inc) for 5 min at RT in 15 mM PIPES, pH 6.8 (5 mM MgCl2 and 10 mM DTT, from Sigma). The freshly prepared mixture is aliquoted into a 384-well MTP. The inhibitors to be examined at concentrations of 1.0×10^−6 M to 1.0×10^−13 and ATP (final concentration 500 μM, from Sigma) are then added. Incubation is at RT for 2 h. ATPase activity is detected by detecting the inorganic phosphate formed using malachite green (from Biomol). […] The individual data of the dose-activity curve are eight-fold determinations. The IC50 values are means of three independent experiments.

IC50 [nM] | SMILES
2.52 | CC(C)(C)[C@H](c1nc(-c2cc(F)ccc2F)cn1Cc1ccccc1)N(CC(CN)CS)C(=O)CO (single isomer, unassigned; isomer 1) [Example 93]
5.14 | CC(C)(C)[C@H](c1nc(-c2cc(F)ccc2F)cn1Cc1ccccc1)N(CC(CN)CS)C(=O)CO (single isomer, unassigned; isomer 2) [Example 94]
1.42 | CC(C)(C)[C@H](c1nc(-c2cc(F)ccc2F)cn1Cc1ccccc1)N(CC[C@H](N)C(=O)N(N)CC(=O)O)C(=O)CO [Example 81, (1-{(2S)-2-Amino-4-[{(1R)-1-[1-benzyl-4-(2,5-difluorphenyl)-1H-imidazol-2-yl]-2,2-dimethylpropyl}(glycoloyl)amino]butanoyl}hydrazino)acetic acid/trifluoroacetic acid (1:2)]
3.05 | CC(C)(C)[C@H](c1nc(-c2cc(F)ccc2F)cn1Cc1ccccc1)N(CCCN)C(=O)c1ccc(N)cc1 [Example 95, Trifluoroacetic acid/4-amino-N-(3-aminopropyl)-N-{(1R)-1-[1-benzyl-4-(2,5-difluorophenyl)-1H-imidazol-2-yl]-2,2-dimethylpropyl}benzamide (2:1)]
5.99 | CC(C)(C)[C@H](c1nc(-c2cc(F)ccc2F)cn1Cc1ccccc1)N(CCCNC(=O)[C@@H](N)CCCNC(N)=O)C(=O)CO [Example 100, Trifluoroacetic acid/N-{3-[{(1R)-1-[1-benzyl-4-(2,5-difluorophenyl)-1H-imidazol-2-yl]-2,2-dimethylpropyl}(glycoloyl)amino]propyl}-N5-carbamoyl-L-ornithinamide (1:1)]
0.179 | CC(C)(C)[C@H](c1cc(-c2cc(F)ccc2F)cn1Cc1ccccc1)N(CC[C@H](N)C(=O)N[C@@H](CO)C(=O)O)C(=O)CO [Example 201, N-{(2S)-2-Amino-4-[{(1R)-1-[1-benzyl-4-(2,5-difluorophenyl)-1H-pyrrol-2-yl]-2,2-dimethylpropyl}(glycoloyl)amino]butanoyl}-L-serine/trifluoroacetic acid (1:1)]
0.23 | CC(C)(C)[C@H](c1cc(-c2cc(F)ccc2F)cn1Cc1ccccc1)N(CC[C@H](N)C(=O)NCC(=O)O)C(=O)CO [Example 203, N-{(2S)-2-Amino-4-[{(1R)-1-[1-benzyl-4-(2,5-difluorophenyl)-1H-pyrrol-2-yl]-2,2-dimethylpropyl}(glycoloyl)amino]butanoyl}glycine/trifluoroacetic acid (1:1)]

The remaining lines, values behind:

SMILES | IC50 [nM]
CC(C)(C)[C@H](c1nc(-c2cc(F)ccc2F)cn1Cc1ccccc1)N(CC[C@H](N)C(=O)NCCCC[C@H](N)C(=O)O)C(=O)CO.O=C(O)C(F)(F)F [Example 59, N^6-{(2S)-2-Amino-4-[{(1R)-1-[1-benzyl-4-(2,5-difluorophenyl)-1H-imidazol-2-yl]-2,2-dimethylpropyl}(glycoloyl)amino]butanoyl}-L-lysine trifluoroacetic acid (1:1)] | 4.27
CC(C)[C@H](NC(=O)CCCCCN1C(=O)CC(SC[C@H](N)C(=O)O)C1=O)C(=O)N[C@@H](C)C(=O)N[C@@H](CCCCNC(=O)[C@@H](N)CCN(C(=O)CO)[C@@H](c1nc(-c2cc(F)ccc2F)cn1Cc1ccccc1)C(C)(C)C)C(=O)O.O=C(O)C(F)(F)F (stereo partly drawn) [Example 63, N-[6-(3-{[(2R)-2-Amino-2-carboxyethyl]sulfanyl}-2,5-dioxopyrrolidin-1-yl)hexanoyl]-L-valyl-L-alanyl-N^6-{(2S)-2-amino-4-[{(1R)-1-[1-benzyl-4-(2,5-difluorophenyl)-1H-imidazol-2-yl]-2,2-dimethylpropyl}(glycoloyl)amino]butanoyl}-L-lysine trifluoroacetic acid (1:1)] | 2.88
CC(C)[C@H](N)C(=O)N[C@@H](CCCNC(N)=O)C(=O)NCCCN(C(=O)CO)[C@@H](c1nc(-c2cc(F)ccc2F)cn1Cc1ccccc1)C(C)(C)C [Example 101, Trifluoroacetic acid/L-valyl-N-{3-[{(1R)-1-[1-benzyl-4-(2,5-difluorophenyl)-1H-imidazol-2-yl]-2,2-dimethylpropyl}(glycoloyl)amino]propyl}-N5-carbamoyl-L-ornithinamide (1:1)] | 4.28
CC(C)(C)[C@H](c1cc(-c2cc(F)ccc2F)cn1Cc1ccccc1)N(CC[C@H](N)C(=O)NCCNC(=O)CNC(=O)CC1SC[C@@H](C(=O)O)NC1=O)C(=O)CO (stereo partly drawn) [Example 256, (3R)-6-{(11S,15R)-11-Amino-15-[1-benzyl-4-(2,5-difluorophenyl)-1H-pyrrol-2-yl]-14-glycoloyl-16,16-dimethyl-2,5,10-trioxo-3,6,9,14-tetraazaheptadec-1-yl}-5-oxothiomorpholine-3-carboxylic acid/trifluoroacetic acid (1:1)] | 16.4

test system: not listed separately; assay: Cell permeability, flux assay using Caco-2 cells; settings: human, Caco-2
Protocol: C-3 In Vitro Tests for Determining Cell Permeability
The cell permeability of a substance can be investigated by means of in vitro testing in a flux assay using Caco-2 cells [M. D. Troutman and D. R. Thakker, Pharm. […] For this purpose, the cells were cultured for 15-16 days on 24-well filter plates. For the determination of permeation, the respective working example was applied in a HEPES buffer to the cells either apically (A) or basally (B) and incubated for 2 hours. After 0 hours and after 2 hours, samples were taken from the cis and trans compartments. The samples were separated by HPLC (Agilent 1200, Böblingen, Germany) using reverse phase columns.
Of critical importance for toxophores which are released intracellularly is the permeability from B to A [Papp(B-A)] and the ratio of Papp(B-A) to Papp(A-B) (efflux ratio): the lower this permeability, the slower the active and passive transport processes of the substance through the monolayer of Caco-2 cells.

SMILES | Papp B→A at 2 h [×10⁻⁶ cm/s] | efflux ratio at 2 h
CC(C)(C)[C@H](c1nc(-c2cc(F)ccc2F)cn1Cc1ccccc1)N(CC[C@H](N)C(=O)NCCCC[C@H](N)C(=O)O)C(=O)CO.O=C(O)C(F)(F)F [Example 59, N^6-{(2S)-2-Amino-4-[{(1R)-1-[1-benzyl-4-(2,5-difluorophenyl)-1H-imidazol-2-yl]-2,2-dimethylpropyl}(glycoloyl)amino]butanoyl}-L-lysine trifluoroacetic acid (1:1)] | 2.2 | 4.8
CC(C)(C)[C@H](c1nc(-c2cc(F)ccc2F)cn1Cc1ccccc1)N(CC[C@H](N)C(=O)NCCN1C(=O)CC(SC[C@H](N)C(=O)O)C1=O)C(=O)CO (stereo partly drawn) [Example 61, S-{1-[2-({(2S)-2-Amino-4-[{(1R)-1-[1-benzyl-4-(2,5-difluorophenyl)-1H-imidazol-2-yl]-2,2-dimethylpropyl}(glycoloyl)amino]butanoyl}amino)ethyl]-2,5-dioxopyrrolidin-3-yl}-L-cysteine] | 4.4 | 7.4
CC(C)(C)[C@H](c1nc(-c2cc(F)ccc2F)cn1Cc1ccccc1)N(CC[C@H](N)C(=O)NCCOCCN1C(=O)CC(SC[C@H](N)C(=O)O)C1=O)C(=O)CO (some centres unmarked) [Example 62] | 5 | 6
CC(C)[C@H](NC(=O)CCCCCN1C(=O)CC(SC[C@H](N)C(=O)O)C1=O)C(=O)N[C@@H](C)C(=O)N[C@@H](CCCCNC(=O)[C@@H](N)CCN(C(=O)CO)[C@@H](c1nc(-c2cc(F)ccc2F)cn1Cc1ccccc1)C(C)(C)C)C(=O)O.O=C(O)C(F)(F)F (stereo partly drawn) [Example 63, N-[6-(3-{[(2R)-2-Amino-2-carboxyethyl]sulfanyl}-2,5-dioxopyrrolidin-1-yl)hexanoyl]-L-valyl-L-alanyl-N^6-{(2S)-2-amino-4-[{(1R)-1-[1-benzyl-4-(2,5-difluorophenyl)-1H-imidazol-2-yl]-2,2-dimethylpropyl}(glycoloyl)amino]butanoyl}-L-lysine trifluoroacetic acid (1:1)] | 0.098 | 1.1
CC(C)(C)[C@H](c1nc(-c2cc(F)ccc2F)cn1Cc1ccccc1)N(CC[C@H](N)C(=O)NN)C(=O)CO.O=C(O)C(F)(F)F [Example 77, Trifluoroacetic acid/N-[(3S)-3-amino-4-hydrazino-4-oxobutyl]-N-{(1R)-1-[1-benzyl-4-(2,5-difluorophenyl)-1H-imidazol-2-yl]-2,2-dimethylpropyl}-2-hydroxyacetamide (1:1)] | 48 | 47
CC(C)(C)[C@H](c1nc(-c2cc(F)ccc2F)cn1Cc1ccccc1)N(CC[C@H](N)C(=O)NCCC(=O)O)C(=O)CO [Example 79, N-{(2S)-2-Amino-4-[{(1R)-1-[1-benzyl-4-(2,5-difluorophenyl)-1H-imidazol-2-yl]-2,2-dimethylpropyl}(glycoloyl)amino]butanoyl}-beta-alanine] | 5.8 | –
CC(C)(C)[C@H](c1cc(-c2cc(F)ccc2F)cn1Cc1ccccc1)N(CC[C@H](N)C(=O)NCCOCCN1C(=O)CC(SC[C@H](N)C(=O)O)C1=O)C(=O)CO.O=C(O)C(F)(F)F (stereo partly drawn) [Example 251, S-(1-{2-[2-({(2S)-2-Amino-4-[{(1R)-1-[1-benzyl-4-(2,5-difluorophenyl)-1H-pyrrol-2-yl]-2,2-dimethylpropyl}(glycoloyl)amino]butanoyl}amino)ethoxy]ethyl}-2,5-dioxopyrrolidin-3-yl)-L-cysteine/trifluoroacetic acid (1:1)] | 2.1 | –
